Assay results as given in EP4488278A1, “SUBSTITUTED PYRIDYL/PYRAZINYL DIHYDROPYRROLOTRIAZINE COMPOUNDS FOR COMBATTING PHYTOPATH-OGENIC FUNGI” (BASF SE, priority 2023, dated 2025).

Tests used:
[1] = system: Botrytis cinerea; test: Microtest: activity against the grey mold Botrytis cinerea in the microtiterplate test; format: cell-based; details: 31 ppm active substance; absorption at 405 nm 7 days after inoculation, 18°C; relative to active compound-free control (100%)
Protocol: The active compounds were formulated separately as a stock solution having a concentration of 10000 ppm in dimethyl sulfoxide.
The stock solutions were mixed according to the ratio, pipetted onto a micro titer plate (MTP) and diluted with water to the stated concentrations. A spore suspension of Botrci cinerea in an aqueous biomalt or yeast-bactopeptone-sodiumacetate solution was then added. The plates were placed in a water vapor-saturated chamber at a temperature of 18°C. Using an absorption photometer, the MTPs were measured at 405 nm 7 days after the inoculation.
The measured parameters were compared to the growth of the active compound-free control variant (100%) and the fungus-free blank value to determine the relative growth in % of the pathogens in the respective active compounds.

[2] = system: Botrytis cinerea; test: Green house: preventative fungicidal control of Botrytis cinerea on leaves of green pepper; format: in vivo; details: 250 ppm active substance, green pepper plants sprayed to run-off one day before inoculation; assessed visually as % diseased leaf area after 5 days at 22 to 24°C; untreated plants 90% infected
Protocol: The compound was dissolved in a mixture of acetone and/or dimethylsulfoxide and the wetting agent/emulsifier Wettol, which is based on ethoxylated alkylphenoles, in a ratio (volume) solvent-emulsifier of 99 to 1 to give a total volume of 5 ml. Subsequently, water was added to total volume of 100 ml. This stock solution was then diluted with the described solvent-emulsifier-water mixture to the final concentration given in the table below. Young seedlings of green pepper were grown in pots to the 4 to 5 leaf stage. These plants were sprayed to run-off with previously described spray solution, containing the concentration of active ingredient or mixture mentioned in the table below. The next day the plants were inoculated with an aqueous biomalt or DOB solution containing the spore suspension of Botrytis cinerea. Then the plants were immediately transferred to a humid chamber. After 5 days at 22 to 24°C and a saturated relative humidity, the extent of fungal attack on the leaves was visually assessed as % diseased leaf area.

**Q.** Which “growth of the pathogen” value [1] does the source give for Cc1cc(C2=NC(C)(C)Nn3cccc32)cnc1C(F)F [Ex-2, 4-(6-(difluoromethyl)-5-methylpyridin-3-yl)-2,2-dimethyl-1,2-dihydropyrrolo[2,1-f][1,2,4]triazine] here?
**A.** 0%

**Q.** What does the source list for Cc1cc(C2=NC(C)(C)N(C)n3cccc32)cnc1C(F)F [Ex-1, 4-(6-(difluoromethyl)-5-methylpyridin-3-yl)-1,2,2-trimethyl-1,2-dihydropyrrolo[2,1-f][1,2,4]triazine]?
**A.** growth of the pathogen [2]: at most 7%; growth of the pathogen [1]: 0%
